Data as given in patent publication US6482802B1 (Endowment for Research in Human Biology, Inc., priority 1998, dated 2002).
pIC50: −log10 of the molar value. Where “and” joins values, the source holds several entries; their conditions need not be identical. Equal entries are not always repeated. Entries after “also recorded” stand apart in the source; their conditions may differ.

Tests used:
[1] = tested on: nuclear translocation of 125I-angiogenin in HUVE cells; experiment: Nuclear translocation of 125I-angiogenin in HUVE cells
[2] = tested on: nuclear translocation of EGF in HUVE cells; experiment: Nuclear translocation of 125I-EGF in HUVE cells; assay type: cell-based, human; details: for EGF Counts (nuclear fraction): 125I-EGF 50 ng/ml, 0 μM: 140 ± 20
Experimental: (§1) Inhibition of nuclear translocation of angiogenic factors in HUVE cells was performed in the following manner. […] The cell pellet was washed once with PBS and lysed with 0.5% triton X-100 in PBS. […] Radioactivity in the nuclear fraction was determined with a gamma counter.

[3] = tested on: chorioallantoic membrane (CAM) of chick embryos; experiment: CAM assay, neomycin alone without angiogenic factor; assay type: in vivo
Experimental: (§2) Angiogenesis was measured on the CAM by the method of Knighton et al. (Knighton et al., 1977, Br. J. Cancer 35:347-356) essentially as described (Fett et al., 1985, Biochemistry 24:5480-5486). Fertilized chicken eggs were kept at 18° C. for 2 days and then incubated in a humidified environment at 37° C. for 3 days. Albumin was aspirated from the embryos and after 24 hours, a “window” was cut through the shell and covered with clear tape. […] After 48-68 hours at 37° C., the growth of blood vessels was observed microscopically and recorded as either positive or negative. A positive response (i.e., an angiogenic response) has a typical “spokewheel” appearance.

[4] = tested on: PC-3 human prostate tumor cells
Text: Mice were examined daily by palpation for the first sign of tumor appearance at which time tumor size was estimated twice weekly by caliper measurements (longest perpendicular length and width).

HUVE cells [5] = experiment: VEGF-induced proliferation of HUVE cells; assay type: cell-based, human; details: for VEGF Cell No.: VEGF 5 ng/ml, 48 hrs, 0 μM: 45100 ± 200
Experimental: (§3) The cells were incubated at 37° C. under humidified air containing 5% CO2 for 48 hrs. […] Cell numbers were determined with a Coulter counter.

[6] = tested on: chorioallantoic membrane (CAM) of chick embryos; experiment: CAM assay, aFGF-induced angiogenesis; assay type: in vivo; details: for % Positive: aFGF alone 73, water 21
Experimental: as §2

[7] = tested on: nuclear translocation of bFGF in HUVE cells; experiment: Nuclear translocation of 125I-bFGF in HUVE cells; assay type: cell-based, human; details: for bFGF Counts (nuclear fraction): 125I-bFGF 50 ng/ml, 0 μM: 18300 ± 200
Experimental: as §1

[8] = tested on: chorioallantoic membrane (CAM) of chick embryos; experiment: CAM assay, bFGF-induced angiogenesis; assay type: in vivo; details: for % Positive: bFGF alone 78, water 21
Experimental: as §2

Human angiogenin = biological target: T1, Human angiogenin (Homo sapiens, UniProt P03950); experiment: Ribonucleolytic activity of angiogenin, yeast tRNA substrate; assay type: biochemical
T1 construct: made in house; host or cells: Escherichia coli
T1 sequence (P03950 with tags, fused parts or gaps): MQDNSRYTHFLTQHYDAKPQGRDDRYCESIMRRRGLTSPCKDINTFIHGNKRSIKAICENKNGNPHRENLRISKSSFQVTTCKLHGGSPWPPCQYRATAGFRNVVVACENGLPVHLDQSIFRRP
Experimental: After incubation for 2 hr at 37° C., […] of 3.4% ice-cold perchloric acid was added, the mixture was vortexed, kept on ice for […] and centrifuged at 15,000×g for 10 min at 4° C. The absorbance of the supernatants was measured at 260 nm.

HUVE cells [9] = experiment: aFGF-induced proliferation of HUVE cells; assay type: cell-based, human; details: for aFGF Cell No.: aFGF 10 ng/ml, 48 hrs, 0 μM: 73900 ± 2500
Experimental: as §3

HUVE cells [10] = experiment: bFGF-induced proliferation of HUVE cells, aminoglycoside antibiotics; assay type: cell-based, human; details: aminoglycoside 100 μM
Experimental: HUVE cells were seeded at 4×10^3 cells/cm^2 in attachment factor (Cell Systems Corp.)-coated 35 mm dishes in HE-SFM, and incubated with 1 μg/ml angiogenin in the presence or absence of inhibitors at 37° C. for 48 hr. Cell were detached by trypsinization and cell numbers were determined with a Coulter counter.
The ability of the other members of the aminoglycoside antibiotic family to inhibit bFGF-induced proliferation of HUVE cells was examined in a similar manner as for angiogenin as described in Section 6.1.1.5, above. HUVE cells, passage 9, were seeded on attachment-factor coated dishes at 50,000 cells per 35 mm dish in HE-SFM. Aminoglycoside antibiotics were added and the cells were incubated with or without […] at 37° C. for 48 hr.

[11] = tested on: chorioallantoic membrane (CAM) of chick embryos; experiment: CAM assay, VEGF-induced angiogenesis; assay type: in vivo; details: for % Positive: VEGF alone 63, water 21
Experimental: as §2

neomycin
% inhibition of nuclear translocation of angiogenin ([1]; inhibitor 10 μM, 125I-angiogenin 1 μg/ml 30 min): 42% | Nuclear 125I-angiogenin ([1]; inhibitor 100 μM, 37° C. 30 min, 125I-angiogenin 1 μg/ml 30 min, control 3090 ± 260): 1230 ± 60 cpm | 125I-angiogenin accumulated in the nucleus, % of control ([1]; neomycin 500 μM): 14% | Nuclear accumulated 125I-angiogenin ([1]; neomycin 500 μM, control 3090±260): 420±100 cpm | pIC50 ([1]; read-out: IC50, angiogenin nuclear translocation, HUVE cells): ~4.30 | EGF % Inhib. of nuclear translocation ([2]; neomycin 10 μM): 0% | EGF Counts (nuclear fraction) ([2]; neomycin 10 μM): 140 ± 20 cpm | EGF % Inhib. of nuclear translocation ([2]; neomycin 50 μM): 0% | EGF Counts (nuclear fraction) ([2]; neomycin 50 μM): 140 ± 20 cpm | EGF % Inhib. of nuclear translocation ([2]; neomycin 100 μM): 7% | EGF Counts (nuclear fraction) ([2]; neomycin 100 μM): 130 ± 30 cpm | EGF % Inhib. of nuclear translocation ([2]; neomycin 150 μM): 14% | EGF Counts (nuclear fraction) ([2]; neomycin 150 μM): 120 ± 10 cpm | EGF % Inhib. of nuclear translocation ([2]; neomycin 200 μM): 29% | EGF Counts (nuclear fraction) ([2]; neomycin 200 μM): 100 ± 20 cpm | induction of angiogenesis by neomycin itself ([3]; about 5 to about 50 μM (20 to 200 ng in 5 μl)): does not induce angiogenesis | Positive eggs ([3]; neomycin 20 ng alone, 50 total eggs): 10 | % Positive ([3]; neomycin 20 ng alone, water 20-21): 20% | Positive eggs ([3]; neomycin 200 ng alone, 29 total eggs): 6 | % Positive ([3]; neomycin 200 ng alone, water 20-21): 21% | Positive eggs ([3]; neomycin 1000 ng alone, 13 total eggs): 3 | % Positive ([3]; neomycin 1000 ng alone, water 21): 23% | mice in which appearance of PC-3 tumors was prevented ([4]; 20 mg/kg body weight s.c., 6 times per week 20 days, then 4 times per week 30 days, 6 mice): 50% | tumor status of treated mice by day 18 ([4]; 20 mg/kg s.c., control 2 of 6 with tumor): all of the mice in the neomycin-treated group remained tumor-free | animals that had developed tumors as of day 42 ([4]; 20 mg/kg s.c., control 100%): 50% | VEGF Inhib. % of cell proliferation (HUVE cells [5]; neomycin 25 μM): 14% | VEGF Cell No. (HUVE cells [5]; neomycin 25 μM): 41000 ± 300 | VEGF Inhib. % of cell proliferation (HUVE cells [5]; neomycin 50 μM): 20% | VEGF Cell No. (HUVE cells [5]; neomycin 50 μM): 38900 ± 1300 | VEGF Inhib. % of cell proliferation (HUVE cells [5]; neomycin 100 μM): 22% | VEGF Cell No. (HUVE cells [5]; neomycin 100 μM): 36400 ± 400 | VEGF Inhib. % of cell proliferation (HUVE cells [5]; neomycin 150 μM): 36% | VEGF Cell No. (HUVE cells [5]; neomycin 150 μM): 35000 ± 200 | VEGF Inhib. % of cell proliferation (HUVE cells [5]; neomycin 200 μM): 34% | VEGF Cell No. (HUVE cells [5]; neomycin 200 μM): 33800 ± 200 | % Inhibition of angiogenic activity ([6]; aFGF 10 ng + neomycin 20 ng): 71% | Positive eggs ([6]; aFGF 10 ng + neomycin 20 ng, 14 total eggs): 5 | % Positive ([6]; aFGF 10 ng + neomycin 20 ng): 36% | % Inhibition of angiogenic activity ([6]; aFGF 10 ng + neomycin 200 ng): 75% | Positive eggs ([6]; aFGF 10 ng + neomycin 200 ng, 47 total eggs): 16 | % Positive ([6]; aFGF 10 ng + neomycin 200 ng): 32% and 34% | dosage that inhibited aFGF-induced angiogenesis ([6]; in vivo): about 200 ng per embryo | bFGF % Inhib. of nuclear translocation ([7]; neomycin 10 μM): 13% | bFGF Counts (nuclear fraction) ([7]; neomycin 10 μM): 15900 ± 100 cpm | bFGF % Inhib. of nuclear translocation ([7]; neomycin 50 μM): 22% | bFGF Counts (nuclear fraction) ([7]; neomycin 50 μM): 14300 ± 100 cpm | bFGF % Inhib. of nuclear translocation ([7]; neomycin 100 μM): 26% | bFGF Counts (nuclear fraction) ([7]; neomycin 100 μM): 13500 ± 300 cpm | bFGF % Inhib. of nuclear translocation ([7]; neomycin 150 μM): 32% | bFGF Counts (nuclear fraction) ([7]; neomycin 150 μM): 12400 ± 200 cpm | bFGF % Inhib. of nuclear translocation ([7]; neomycin 200 μM): 40% | bFGF Counts (nuclear fraction) ([7]; neomycin 200 μM): 10900 ± 100 cpm | % Inhibition of angiogenic activity ([8]; bFGF 10 ng + neomycin 20 ng): 58% | Positive eggs ([8]; bFGF 10 ng + neomycin 20 ng, 33 total eggs): 15 | % Positive ([8]; bFGF 10 ng + neomycin 20 ng): 45% | % Inhibition of angiogenic activity ([8]; bFGF 10 ng + neomycin 200 ng): 81% | Positive eggs ([8]; bFGF 10 ng + neomycin 200 ng, 38 total eggs): 12 | % Positive ([8]; bFGF 10 ng + neomycin 200 ng): 34% and 32% | dosage that inhibited bFGF-induced angiogenesis ([8]; in vivo): about 200 ng per embryo | ribonucleolytic activity of angiogenin, % of control (Human angiogenin; neomycin 5 μM): 87% | ribonucleolytic activity of angiogenin, % of control (Human angiogenin; neomycin 10 μM): 105% | ribonucleolytic activity of angiogenin, % of control (Human angiogenin; neomycin 50 μM): 88% | aFGF Inhib. % of cell proliferation (HUVE cells [9]; neomycin 25 μM): 25% | aFGF Cell No. (HUVE cells [9]; neomycin 25 μM): 60000 ± 400 | aFGF Inhib. % of cell proliferation (HUVE cells [9]; neomycin 50 μM): 42% | aFGF Cell No. (HUVE cells [9]; neomycin 50 μM): 51300 ± 400 | aFGF Inhib. % of cell proliferation (HUVE cells [9]; neomycin 100 μM): 50% | aFGF Cell No. (HUVE cells [9]; neomycin 100 μM): 46700 ± 800 | aFGF Inhib. % of cell proliferation (HUVE cells [9]; neomycin 150 μM): 63% | aFGF Cell No. (HUVE cells [9]; neomycin 150 μM): 41000 ± 1000 | aFGF Inhib. % of cell proliferation (HUVE cells [9]; neomycin 200 μM): 68% | aFGF Cell No. (HUVE cells [9]; neomycin 200 μM): 37500 ± 200 | pIC50 (HUVE cells [9]; read-out: IC50, aFGF-induced proliferation of endothelial cells): ~4.00 | % Inhibition of bFGF-induced cell proliferation (HUVE cells [10]; bFGF 10 ng/ml): 71% | bFGF (10 ng/ml) Cell Numbers (HUVE cells [10]; bFGF 10 ng/ml, 48 hr, control 99000 ± 1000): 68400 ± 800 | Control (cell number without bFGF) (HUVE cells [10]; no bFGF, 48 hr, control 61300 ± 500): 58000 ± 1500 | % Inhibition of angiogenic activity ([11]; VEGF 10 ng + neomycin 200 ng): 10% | Positive eggs ([11]; VEGF 10 ng + neomycin 200 ng, 24 total eggs): 14 | % Positive ([11]; VEGF 10 ng + neomycin 200 ng): 58% | % Inhibition of angiogenic activity ([11]; VEGF 10 ng + neomycin 1000 ng): 24% | % Positive ([11]; VEGF 10 ng + neomycin 1000 ng (1 μg)): 52% | Positive eggs ([11]; VEGF 10 ng + neomycin 1000 ng, 27 total eggs): 14 | inhibition of angiogenic activity of VEGF on the CAM ([11]; VEGF 10 ng, neomycin 200 ng and 1 μg): did not significantly inhibit; also recorded: not significantly inhibited | reduction of angiogenic activity of VEGF on the CAM ([11]; dosage as high as 900 ng per embryo): did not significantly reduce
